# From patent US20240132431A1, “METHOD FOR ALKYLATING ACIDIC FUNCTIONAL GROUP” (Chugai Seiyaku Kabushiki Kaisha, priority 2021, published 2024)
# Biological target: T1, Bcl-2 protein (Recombinant Human Bcl-2 Protein) (Homo sapiens, UniProt P10415)
# T1 construct: purchased Novus NBP2-34889
# Test: Binding evaluation of mixture library compounds to Bcl-2 using AS-MS (affinity selection mass spectrometry)
# Details: for ASMS ratio (%) n = 1 / ASMS ratio (%) n = 2: ASMS Ratio(%)=(A−C)/B×100; for ASMS ratio (%) n = 1: replicate n = 1; for ASMS ratio (%) n = 2: replicate n = 2
# Outline: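 Readout is ASMS Ratio (%), (A−C)/B×100, from reversed-phase LC/MS of SEC-passed extracts, with protein-free unfiltered standard (B) and protein-free SEC blank (C). Recombinant human Bcl-2 at 20 μM final met ~1200 pooled compounds at […] each for 1 h, 23° C., dark, in Tris-HCl pH 7.4 buffer.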
# [1] = AS-MS on the mixture of 1200 library compounds
# [2] = AS-MS, mixture of 1200 compounds, Bcl-2
# T1 sequence (P10415 whole entry): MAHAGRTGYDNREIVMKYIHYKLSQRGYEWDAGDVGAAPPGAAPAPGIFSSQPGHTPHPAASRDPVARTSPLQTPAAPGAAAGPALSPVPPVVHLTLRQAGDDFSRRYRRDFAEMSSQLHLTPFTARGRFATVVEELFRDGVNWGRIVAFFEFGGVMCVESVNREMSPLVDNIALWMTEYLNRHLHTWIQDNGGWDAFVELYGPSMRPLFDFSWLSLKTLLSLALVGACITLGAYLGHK
compound,measurement,setting,value
"CCOc1cncc(C#Cc2ccccc2C(=O)N2CCN(c3ccc(C(=O)NS(=O)(=O)c4ccc(NCCSc5ccccc5)c(C(F)(F)F)c4)cc3)CC2)c1 [B2R030-01, 4-[4-[2-[2-(5-Ethoxypyridin-3-yl)ethynyl]benzoyl]piperazin-1-yl]-N-[4-(2-phenylsulfanylethylamino)-3-(trifluoromethyl)phenyl]sulfonylbenzamide]",ASMS ratio (%),n = 1,0.0%
same,ASMS ratio (%),n = 2,4.8%
"CCOc1cncc(-c2cc(C(=O)N3CCN(c4ccc(C(=O)N(CC)CC)nn4)CC3)cc(C(C)(C)C)c2)c1 [B4J016-01, 6-[4-[3-tert-Butyl-5-(5-ethoxypyridin-3-yl)benzoyl]piperazin-1-yl]-N,N-diethylpyridazine-3-carboxamide]",ASMS ratio (%) n = 1,[1],0.0%
same,ASMS ratio (%) n = 2,[1],0.9%
"CCOc1cccc(-c2cc(C(=O)N3CCN(c4ccc(C(=O)NCC56CC7CC(CC(C7)C5)C6)nn4)CC3)cc(C(C)(C)C)c2)c1 [B1A015-01, N-(1-Adamantylmethyl)-6-[4-[3-tert-butyl-5-(3-ethoxyphenyl)benzoyl]piperazin-1-yl]pyridazine-3-carboxamide]",ASMS ratio (%) n = 1,[2],−0.9%
same,ASMS ratio (%) n = 2,[2],−20.6%
"CCOc1cncc(-c2ccc(CN3CCN(c4ccc(C(=O)NS(=O)(=O)C(C)(C)C)nn4)CC3)cc2C)c1 [B2L074-01, N-tert-Butylsulfonyl-6-[4-[[4-(5-ethoxypyridin-3-yl)-3-methylphenyl]methyl]piperazin-1-yl]pyridazine-3-carboxamide]",ASMS ratio (%),n = 1,−1.0%
same,ASMS ratio (%),n = 2,1.4%
"CCOc1cccc(-c2cc(C(=O)N3CCN(c4ccc(C(=O)NS(=O)(=O)C(C)(C)C)nn4)CC3)cc(C(C)(C)C)c2)c1 [B2L015-01, 6-[4-[3-tert-Butyl-5-(3-ethoxyphenyl)benzoyl]piperazin-1-yl]-N-tert-butylsulfonylpyridazine-3-carboxamide]",ASMS ratio (%),n = 1,0.0%
same,ASMS ratio (%),n = 2,0.0%
"CCOc1cncc(-c2ccc(C(C)N3CCN(c4ccc(C(=O)Nc5ccc(OC)cc5)cc4)CC3)c(F)c2)c1 (stereo not drawn) [B1O100-01, 4-[4-[1-[4-(5-Ethoxypyridin-3-yl)-2-fluorophenyl]ethyl]piperazin-1-yl]-N-(4-methoxyphenyl)benzamide]",ASMS ratio (%) n = 1,[1],−19.7%
same,ASMS ratio (%) n = 2,[1],11.1%
"CCOc1cccc(C#Cc2ccccc2C(=O)N2CCN(c3ccc(C(=O)NS(=O)(=O)c4ccc(NCCSc5ccccc5)c([N+](=O)[O-])c4)nn3)CC2)c1 [B2Q007-01, 6-[4-[2-[2-(3-Ethoxyphenyl)ethynyl]benzoyl]piperazin-1-yl]-N-[3-nitro-4-(2-phenylsulfanylethylamino)phenyl]sulfonylpyridazine-3-carboxamide]",ASMS ratio (%) n = 1,"AS-MS, mixture library, Bcl-2",4.2%
same,ASMS ratio (%) n = 2,"AS-MS, mixture library, Bcl-2",−8.3%
"CCOc1cccc(-c2ccccc2CCC(=O)N2CCN(c3ccc(C(=O)N(CC)CC)nn3)CC2)c1 [B4J011-01, 6-[4-[3-[2-(3-Ethoxyphenyl)phenyl]propanoyl]piperazin-1-yl]-N,N-diethylpyridazine-3-carboxamide]",ASMS ratio (%) n = 1,[1],−0.1%
same,ASMS ratio (%) n = 2,[1],−0.9%
6-[4-[3-tert-Butyl-5-(3-ethoxyphenyl)benzoyl]piperazin-1-yl]-N-propylpyridazine-3-carboxamide [B1M060-01],ASMS ratio (%) n = 1,[2],0.0%
same,ASMS ratio (%) n = 2,[2],0.0%
"CCOc1cncc(-c2csc(CN3CCN(c4ccc(C(=O)NS(=O)(=O)CCC(F)(F)F)nn4)CC3)c2)c1 [B2N094-01, 6-[4-[[4-(5-Ethoxypyridin-3-yl)thiophen-2-yl]methyl]piperazin-1-yl]-N-(3,3,3-trifluoropropylsulfonyl)pyridazine-3-carboxamide]",ASMS ratio (%),n = 1,0.0%
same,ASMS ratio (%),n = 2,0.0%
"CCOc1cncc(-c2ccc(CN3CCN(c4ccc(C(=O)NS(=O)(=O)c5ccc(NCCSc6ccccc6)c(C(F)(F)F)c5)nn4)CC3)c(OC)c2)c1 [B2R080-01, 6-[4-[[4-(5-Ethoxypyridin-3-yl)-2-methoxyphenyl]methyl]piperazin-1-yl]-N-[4-(2-phenylsulfanylethylamino)-3-(trifluoromethyl)phenyl]sulfonylpyridazine-3-carboxamide]",ASMS ratio (%),n = 1,16.7%
same,ASMS ratio (%),n = 2,21.2%
"CCOc1cncc(-c2ccc(C(=O)N3CCN(c4ccc(C(=O)NCC56CC7CC(CC(C7)C5)C6)nn4)CC3)c3ccccc23)c1 [B1A014-01, N-(1-Adamantylmethyl)-6-[4-[4-(5-ethoxypyridin-3-yl)naphthalene-1-carbonyl]piperazin-1-yl]pyridazine-3-carboxamide]",ASMS ratio (%) n = 1,[2],8.1%
same,ASMS ratio (%) n = 2,[2],0.0%
"CCOc1cncc(-c2csc(C(=O)N3CCN(c4ccc(C(=O)NCC(F)(F)F)cc4)CC3)c2)c1 [B1K024-01, 4-[4-[4-(5-Ethoxypyridin-3-yl)thiophene-2-carbonyl]piperazin-1-yl]-N-(2,2,2-trifluoroethyl)benzamide]",ASMS ratio (%) n = 1,[2],0.0%
same,ASMS ratio (%) n = 2,[2],0.0%
"CCOc1cccc(-c2cc(CN3CCN(c4ccc(C(=O)NS(=O)(=O)CCC(F)(F)F)cc4)CC3)cc(OCC)c2)c1 [B2N055-01, 4-[4-[[3-Ethoxy-5-(3-ethoxyphenyl)phenyl]methyl]piperazin-1-yl]-N-(3,3,3-trifluoropropylsulfonyl)benzamide]",ASMS ratio (%),n = 1,0.0%
same,ASMS ratio (%),n = 2,0.0%
"CCOc1cncc(-c2ccc(CN3CCN(c4ccc(C(=O)NS(=O)(=O)CC56CC7CC(CC(C7)C5)C6)cc4)CC3)c(OC)c2)c1 [B2A054-01, N-(1-Adamantylmethylsulfonyl)-4-[4-[[4-(5-ethoxypyridin-3-yl)-2-methoxyphenyl]methyl]piperazin-1-yl]benzamide]",ASMS ratio (%) n = 1,"AS-MS, mixture library, Bcl-2",17.5%
same,ASMS ratio (%) n = 2,"AS-MS, mixture library, Bcl-2",−0.9%
"CCOc1cccc(-c2cc(OC)c(CN3CCN(c4ccc(C(=O)NS(=O)(=O)c5ccc(NCCSc6ccccc6)c(C(F)(F)F)c5)cc4)CC3)c(OC)c2)c1 [B2R059-01, 4-[4-[[4-(3-Ethoxyphenyl)-2,6-dimethoxyphenyl]methyl]piperazin-1-yl]-N-[4-(2-phenylsulfanylethylamino)-3-(trifluoromethyl)phenyl]sulfonylbenzamide]",ASMS ratio (%),n = 1,0.0%
same,ASMS ratio (%),n = 2,0.0%
"CCOc1cccc(-c2ccc(C(C)N3CCN(c4ccc(C(=O)NS(C)(=O)=O)cc4)CC3)cc2)c1 (stereo not drawn) [B2I097-01, 4-[4-[1-[4-(3-Ethoxyphenyl)phenyl]ethyl]piperazin-1-yl]-N-methylsulfonylbenzamide]",ASMS ratio (%),n = 1,0.8%
same,ASMS ratio (%),n = 2,1.4%
"CCOc1cccc(-c2ccccc2CCC(=O)N2CCN(c3ccc(C(=O)NS(=O)(=O)CCC(F)(F)F)nn3)CC2)c1 [B2N011-01, 6-[4-[3-[2-(3-Ethoxyphenyl)phenyl]propanoyl]piperazin-1-yl]-N-(3,3,3-trifluoropropylsulfonyl)pyridazine-3-carboxamide]",ASMS ratio (%),n = 1,0.0%
same,ASMS ratio (%),n = 2,0.0%
CCOc1cccc(-c2cc(CN3CCN(c4ccc(C(=O)NCC(F)(F)F)nn4)CC3)cc(C(F)(F)F)c2)c1 [B1K087-01],ASMS ratio (%) n = 1,[2],1.8%
same,ASMS ratio (%) n = 2,[2],−0.1%
CCCNC(=O)c1ccc(N2CCN(Cc3ccccc3C#Cc3cccc(OCC)c3)CC2)cc1 [B1M052-01],ASMS ratio (%) n = 1,[2],27.6%
same,ASMS ratio (%) n = 2,[2],20.2%
CCOc1cccc(-c2ccc(CN3CCN(c4ccc(C(=O)NS(C)(=O)=O)nn4)CC3)c(CC)c2)c1 [B2I075-01],ASMS ratio (%),n = 1,0.0%
same,ASMS ratio (%),n = 2,0.0%
"CCOc1cncc(-c2cc(CN3CCN(c4ccc(C(=O)NS(=O)(=O)CCC(F)(F)F)cc4)CC3)cc(C(F)(F)F)c2)c1 [B2N062-01, 4-[4-[[3-(5-Ethoxypyridin-3-yl)-5-(trifluoromethyl)phenyl]methyl]piperazin-1-yl]-N-(3,3,3-trifluoropropylsulfonyl)benzamide]",ASMS ratio (%),n = 1,0.0%
same,ASMS ratio (%),n = 2,0.0%
"CCOc1cccc(-c2ccc(C(=O)N3CCN(c4ccc(C(=O)NS(=O)(=O)CC56CC7CC(CC(C7)C5)C6)nn4)CC3)c3ccccc23)c1 [B2A013-01, N-(1-Adamantylmethylsulfonyl)-6-[4-[4-(3-ethoxyphenyl)naphthalene-1-carbonyl]piperazin-1-yl]pyridazine-3-carboxamide]",ASMS ratio (%) n = 1,"AS-MS, mixture library, Bcl-2",11.6%
same,ASMS ratio (%) n = 2,"AS-MS, mixture library, Bcl-2",17.8%
"CCOc1cccc(-c2ccc(C(=O)N3CCN(c4ccc(C(=O)Nc5ccc(OC)cc5)nn4)CC3)cc2F)c1 [B1O005-01, 6-[4-[4-(3-Ethoxyphenyl)-3-fluorobenzoyl]piperazin-1-yl]-N-(4-methoxyphenyl)pyridazine-3-carboxamide]",ASMS ratio (%) n = 1,[1],3.6%
same,ASMS ratio (%) n = 2,[1],−2.5%
"CCOc1cncc(-c2cc(C(=O)N3CCN(c4ccc(C(=O)NCC(F)(F)F)cc4)CC3)cc(C(C)(C)C)c2)c1 [B1K038-01, 4-[4-[3-tert-Butyl-5-(5-ethoxypyridin-3-yl)benzoyl]piperazin-1-yl]-N-(2,2,2-trifluoroethyl)benzamide]",ASMS ratio (%) n = 1,[2],0.6%
same,ASMS ratio (%) n = 2,[2],−1.8%
"CCOc1cccc(-c2cc(CN3CCN(c4ccc(C(=O)Nc5ccc(OC)cc5)nn4)CC3)cc(OC(F)(F)F)c2)c1 [B1O089-01, 6-[4-[[3-(3-Ethoxyphenyl)-5-(trifluoromethoxy)phenyl]methyl]piperazin-1-yl]-N-(4-methoxyphenyl)pyridazine-3-carboxamide]",ASMS ratio (%) n = 1,[1],3.8%
same,ASMS ratio (%) n = 2,[1],−5.3%
4-[4-[3-[2-(5-Ethoxypyridin-3-yl)ethynyl]-5-(trifluoromethyl)benzoyl]piperazin-1-yl]-N-propylbenzamide [B1M019-01],ASMS ratio (%) n = 1,[2],1.5%
same,ASMS ratio (%) n = 2,[2],0.0%
